Like-named read-outs stand apart in the source and are kept apart here.
Key:
Format in all cases: biochemical
[1] = molecular target: wild-type un-phosphorylated FGFR3 protein (Homo sapiens (Human), UniProt P22607); experiment: FGFR Enzymatic Assay (FRET peptide phosphorylation), FGFR3; conditions: pre-incubated for 4 hours
FGFR1 = FGFR1 (Homo sapiens (Human), UniProt P11362); experiment: FGFR Enzymatic Assay (FRET peptide phosphorylation), FGFR1; conditions: pre-incubated for 4 hours
FGFR2 = FGFR2 (Homo sapiens (Human), UniProt P21802); experiment: FGFR Enzymatic Assay (FRET peptide phosphorylation), FGFR2
Sequence of FGFR2 (P21802 22-821): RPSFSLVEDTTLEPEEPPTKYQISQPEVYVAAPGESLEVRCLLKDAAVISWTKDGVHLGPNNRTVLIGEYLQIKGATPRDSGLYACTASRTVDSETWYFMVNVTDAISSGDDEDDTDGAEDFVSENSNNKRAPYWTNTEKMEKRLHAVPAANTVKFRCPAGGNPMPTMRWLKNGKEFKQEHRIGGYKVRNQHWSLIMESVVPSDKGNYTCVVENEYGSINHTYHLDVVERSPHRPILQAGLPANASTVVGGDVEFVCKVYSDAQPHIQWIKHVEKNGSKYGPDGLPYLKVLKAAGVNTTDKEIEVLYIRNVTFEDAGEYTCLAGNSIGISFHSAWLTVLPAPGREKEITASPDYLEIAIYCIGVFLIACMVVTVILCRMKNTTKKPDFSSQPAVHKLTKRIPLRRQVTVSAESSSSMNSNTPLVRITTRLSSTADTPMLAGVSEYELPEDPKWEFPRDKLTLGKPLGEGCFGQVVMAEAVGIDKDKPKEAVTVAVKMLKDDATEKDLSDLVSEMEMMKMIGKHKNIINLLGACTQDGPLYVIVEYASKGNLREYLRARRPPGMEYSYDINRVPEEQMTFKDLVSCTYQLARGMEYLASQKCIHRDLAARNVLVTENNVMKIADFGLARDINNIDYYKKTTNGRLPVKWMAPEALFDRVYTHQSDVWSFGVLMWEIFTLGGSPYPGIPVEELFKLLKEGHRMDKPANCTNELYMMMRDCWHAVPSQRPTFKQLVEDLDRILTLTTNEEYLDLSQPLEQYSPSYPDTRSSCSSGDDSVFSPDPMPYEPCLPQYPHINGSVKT

Sequence of wild-type un-phosphorylated FGFR3 protein (P22607 23-806): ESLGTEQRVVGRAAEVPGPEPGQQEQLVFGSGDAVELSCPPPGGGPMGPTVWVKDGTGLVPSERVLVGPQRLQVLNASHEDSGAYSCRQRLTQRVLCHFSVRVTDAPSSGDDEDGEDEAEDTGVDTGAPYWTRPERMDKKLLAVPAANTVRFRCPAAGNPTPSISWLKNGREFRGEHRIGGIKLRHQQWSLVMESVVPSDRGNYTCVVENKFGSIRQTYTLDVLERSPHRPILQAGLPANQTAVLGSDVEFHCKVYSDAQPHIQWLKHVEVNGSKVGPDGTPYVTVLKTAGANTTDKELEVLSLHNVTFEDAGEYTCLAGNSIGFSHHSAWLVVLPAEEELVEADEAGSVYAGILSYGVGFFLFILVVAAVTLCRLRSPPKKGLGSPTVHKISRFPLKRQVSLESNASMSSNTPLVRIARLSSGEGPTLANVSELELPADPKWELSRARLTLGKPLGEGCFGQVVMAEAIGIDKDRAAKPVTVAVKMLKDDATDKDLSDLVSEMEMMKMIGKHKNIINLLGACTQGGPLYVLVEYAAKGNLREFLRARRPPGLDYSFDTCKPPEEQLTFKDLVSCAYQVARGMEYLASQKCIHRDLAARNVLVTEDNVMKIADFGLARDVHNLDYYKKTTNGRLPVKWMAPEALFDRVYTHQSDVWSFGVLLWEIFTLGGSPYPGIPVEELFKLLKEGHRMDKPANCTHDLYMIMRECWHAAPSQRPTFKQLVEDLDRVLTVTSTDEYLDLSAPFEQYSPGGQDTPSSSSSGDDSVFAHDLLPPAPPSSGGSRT
Sequence of FGFR1 (P11362 22-822): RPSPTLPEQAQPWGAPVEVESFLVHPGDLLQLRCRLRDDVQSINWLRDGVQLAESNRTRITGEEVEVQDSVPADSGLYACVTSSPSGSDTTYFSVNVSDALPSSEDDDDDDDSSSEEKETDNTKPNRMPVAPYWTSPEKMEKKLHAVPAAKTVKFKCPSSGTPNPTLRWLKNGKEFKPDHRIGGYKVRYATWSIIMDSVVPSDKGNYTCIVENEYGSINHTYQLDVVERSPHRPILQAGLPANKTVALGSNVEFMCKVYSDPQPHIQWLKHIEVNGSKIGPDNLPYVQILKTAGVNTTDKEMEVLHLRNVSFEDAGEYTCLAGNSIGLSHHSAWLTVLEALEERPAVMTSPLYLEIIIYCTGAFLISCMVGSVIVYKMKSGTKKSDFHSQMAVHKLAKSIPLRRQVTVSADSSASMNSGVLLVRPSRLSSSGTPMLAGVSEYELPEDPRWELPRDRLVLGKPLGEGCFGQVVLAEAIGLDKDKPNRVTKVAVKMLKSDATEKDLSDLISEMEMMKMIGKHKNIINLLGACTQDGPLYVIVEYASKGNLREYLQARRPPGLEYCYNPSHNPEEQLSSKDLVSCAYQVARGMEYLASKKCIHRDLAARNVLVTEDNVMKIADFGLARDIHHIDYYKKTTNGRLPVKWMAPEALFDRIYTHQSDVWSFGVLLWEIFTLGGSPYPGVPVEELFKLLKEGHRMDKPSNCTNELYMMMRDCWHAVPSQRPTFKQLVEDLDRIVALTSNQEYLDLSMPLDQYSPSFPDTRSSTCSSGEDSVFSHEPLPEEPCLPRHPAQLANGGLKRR

SMILES	IC50 [1] [µM]	IC50 (FGFR1) [µM]	IC50 (FGFR2; pre-incubated for 4 hours) [µM]	IC50 (FGFR2) [µM]
CNC(=O)c1cc(-c2cnn3cc(-c4cnn(CCOC)c4)c(N[C@H]4CCOC4)nc23)c(F)c(C(F)F)c1 [Example 50, (S)-3-(Difluoromethyl)-4-fluoro-5-(6-(1-(2-methoxyethyl)-1H-pyrazol-4-yl)-5-((tetrahydrofuran-3-yl)amino)pyrazolo[1,5-a]pyrimidin-3-yl)-N-methylbenzamide]	< 0.01	0.01 to 0.03	< 0.01	
CNC(=O)c1cccc(-c2cnn3cc(-c4cnn(C)c4)c(OC4CCOC4)nc23)c1 (racemic) [Example 1, N-Methyl-3-(6-(1-methyl-1H-pyrazol-4-yl)-5-((tetrahydrofuran-3-yl)oxy)pyrazolo[1,5-a]pyrimidin-3-yl)benzamide]	< 0.01	0.03 to 0.2	< 0.01	
CNC(=O)c1cc(-c2cnn3cc(-c4ccc(C(C)(C)O)nc4)c(O[C@H]4CCOC4)nc23)c(F)c(C(F)F)c1 [Example 25, (S)-3-(Difluoromethyl)-4-fluoro-5-(6-(6-(2-hydroxypropan-2-yl)pyridin-3-yl)-5-((tetrahydrofuran-3-yl)oxy)pyrazolo[1,5-a]pyrimidin-3-yl)-N-methylbenzamide]	< 0.01	0.03 to 0.2	< 0.01	
CNC(=O)c1cncc(-c2cnn3cc(-c4cnn(C5CCC5)c4)c(O[C@H]4CCOC4)nc23)c1 [Example 22, (S)-5-(6-(1-Cyclobutyl-1H-pyrazol-4-yl)-5-((tetrahydrofuran-3-yl)oxy)pyrazolo[1,5-a]pyrimidin-3-yl)-N-methylnicotinamide]	< 0.01	0.01 to 0.03	< 0.01	
CNC(=O)c1cc(C)c(F)c(-c2cnn3cc(-c4ccnnc4)c(N[C@H]4CCOC4)nc23)c1 [Example 44, (S)-4-Fluoro-N,3-dimethyl-5-(6-(pyridazin-4-yl)-5-((tetrahydrofuran-3-yl)amino)pyrazolo[1,5-a]pyrimidin-3-yl)benzamide]		≥ 0.2	0.01 to 0.03	
CNC(=O)c1cc(-c2cnn3cc(-c4cnn(C)c4)c(N[C@H]4CCOC4)nc23)c(F)c(C(F)F)c1 [Example 47, (S)-3-(Difluoromethyl)-4-fluoro-N-methyl-5-(6-(1-methyl-1H-pyrazol-4-yl)-5-((tetrahydrofuran-3-yl)amino)pyrazolo[1,5-a]pyrimidin-3-yl)benzamide]	< 0.01	0.01 to 0.03	< 0.01	
CNC(=O)c1cc(F)c(F)c(-c2cnn3cc(-c4ccc(N5CCN(C)CC5)cc4)c(O[C@H]4CCOC4)nc23)c1 [Example 12, (S)-3,4-Difluoro-N-methy1-5-(6-(4-(4-methylpiperazin-1-yl)pheny1)-5-((tetrahydrofuran-3-yl)oxy)pyrazolo[1,5-a]pyrimidin-3-yl)benzamide]	< 0.01	< 0.01		< 0.01
CNC(=O)c1cc(C#N)cc(-c2cnn3cc(-c4cccnc4)c(O[C@H]4CCOC4)nc23)c1 [Example 27, (S)-3-Cyano-N-methyl-5-(6-(pyridin-3-yl)-5-((tetrahydrofuran-3-yl)oxy)pyrazolo[1,5-a]pyrimidin-3-yl)benzamide]		≥ 0.2	0.01 to 0.03	
CNC(=O)c1cncc(-c2cnn3cc(-c4ccc(N5CCN(C)CC5)nc4)c(O[C@H]4CCOC4)nc23)c1 [Example 19, (S)-N-Methyl-5-(6-(6-(4-methylpiperazin-1-yl)pyridin-3-yl)-5-((tetrahydrofuran-3-yl)oxy)pyrazolo[1,5-a]pyrimidin-3-yl)nicotinamide]	< 0.01	0.03 to 0.2	< 0.01	
CNC(=O)c1cc(-c2cnn3cc(-c4cnn(C5CCOC5)c4)c(N[C@H]4CCOC4)nc23)c(F)c(C(F)F)c1 (stereo partly drawn) [Example 49, 3-(Difluoromethyl)-4-fluoro-N-methyl-5-(6-(1-(tetrahydrofuran-3-yl)-1H-pyrazol-4-yl)-5-(((S)-tetrahydrofuran-3-yl)amino)pyrazolo[1,5-a]pyrimidin-3-y1)benzamide]	< 0.01	0.01 to 0.03		< 0.01
CNC(=O)c1cc(-c2cnn3cc(-c4cnc(NC)c(C)c4)c(O[C@H]4CCOC4)nc23)c(F)c(C(F)F)c1 [Example 24, (S)-3-(Difluoromethyl)-4-fluoro-N-methyl-5-(6-(5-methyl-6-(methylamino)pyridin-3-yl)-5-((tetrahydrofuran-3-yl)oxy)pyrazolo[1,5-a]pyrimidin-3-yl)benzamide]		≥ 0.2	0.01 to 0.03	
CNC(=O)c1cc(-c2cnn3cc(-c4cnn(C5CCC5)c4)c(O[C@H]4CCOC4)nc23)cc(S(C)(=O)=O)c1 [Example 32, (S)-3-(6-(1-Cyclobutyl-1H-pyrazol-4-yl)-5-((tetrahydrofuran-3-yl)oxy)pyrazolo[1,5-a]pyrimidin-3-yl)-N-methyl-5-(methylsulfonyl)benzamide]	≥ 0.2	≥ 0.2	0.03 to 0.2	
CNC(=O)c1ccc(F)c(-c2cnn3cc(-c4cnn(C)c4)c(OC4CCOC4)nc23)c1 (racemic) [Example 2, 4-Fluoro-N-methyl-3-(6-(1-methyl-1H-pyrazol-4-yl)-5-((tetrahydrofuran-3-yl)oxy)pyrazolo[1,5-a]pyrimidin-3-yl)benzamide]	< 0.01	0.03 to 0.2	< 0.01	
CNC(=O)c1cc(F)c(F)c(-c2cnn3cc(-c4ccn(C(C)C)c(=O)c4)c(N[C@H]4CCOC4)nc23)c1 [Example 56, (S)-3,4-Difluoro-5-(6-(1-isopropyl-2-oxo-1,2-dihydropyridin-4-y1)-5-((tetrahydrofuran-3-yl)amino)pyrazolo[1,5-a]pyrimidin-3-y1)-N-methylbenzamide]	< 0.01	0.01 to 0.03		< 0.01
CNC(=O)c1cc(F)c(F)c(-c2cnn3cc(-c4cnn(C5CN(C)C5)c4)c(O[C@H]4CCOC4)nc23)c1 [Example 17, (S)-3,4-Difluoro-N-methyl-5-(6-(1-(1-methylazetidin-3-yl)-1H-pyrazol-4-yl)-5-((tetrahydrofuran-3-yl)oxy)pyrazolo[1,5-a]pyrimidin-3-yl)benzamide]	< 0.01	< 0.01	< 0.01	
CNC(=O)c1cncc(-c2cnn3cc(-c4cnn(C)c4)c(N[C@H]4CCOC4)nc23)c1 [Example 7, (S)—N-Methyl-5-(6-(1-methyl-1H-pyrazol-4-yl)-5-((tetrahydrofuran-3-yl)amino)pyrazolo[1,5-a]pyrimidin-3-yl)nicotinamide]	< 0.01	0.03 to 0.2		
CNC(=O)c1cc(C#N)cc(-c2cnn3cc(-c4cnn(C)c4)c(N[C@H]4CCOC4)nc23)c1 [Example 8, (S)-3-Cyano-N-methyl-5-(6-(1-methyl-1H-pyrazol-4-yl)-5-((tetrahydrofuran-3-yl)amino)pyrazolo[1,5-a]pyrimidin-3-yl)benzamide]	< 0.01	0.03 to 0.2		
CNC(=O)c1cc(C#N)cc(-c2cnn3cc(-c4cncc(C)c4)c(O[C@H]4CCOC4)nc23)c1 [Example 29, (S)-3-Cyano-N-methyl-5-(6-(5-methylpyridin-3-yl)-5-((tetrahydrofuran-3-yl)oxy)pyrazolo[1,5-a]pyrimidin-3-yl)benzamide]		≥ 0.2	0.03 to 0.2	
CNC(=O)c1cncc(-c2cnn3cc(-c4cnn(C(C)C)c4)c(N[C@H]4CCOC4)nc23)c1 [Example 10, (S)-5-(6-(1-Isopropyl-1H-pyrazol-4-yl)-5-((tetrahydrofuran-3-yl)amino)pyrazolo[1,5-a]pyrimidin-3-yl)-N-methylnicotinamide]	< 0.01	0.03 to 0.2		

Source: patent US11566028B2, “Bicyclic heterocycles as FGFR inhibitors” (Incyte Corporation, priority 2019, dated 2023)
